From PMC6629785, “Synthesis and Pharmacological Evaluation of a Novel Peptide Based on Anemonia sulcata BDS-I Toxin as a New KV3.4 Inhibitor Exerting a Neuroprotective Effect Against Amyloid-β Peptide” (Frontiers in Chemistry, 2019)
Ends that are not written are not given here.

Molecular target: T1, KV3.4 channels (Homo sapiens, UniProt Q03721)
T1 construct: expressed in transfected cells; host or cells: CHO cells, transient transfection with Lipofectamine 2000; cDNAs provided by Professor Goldstein, University of Chicago
T1 sequence (Q03721 1-635): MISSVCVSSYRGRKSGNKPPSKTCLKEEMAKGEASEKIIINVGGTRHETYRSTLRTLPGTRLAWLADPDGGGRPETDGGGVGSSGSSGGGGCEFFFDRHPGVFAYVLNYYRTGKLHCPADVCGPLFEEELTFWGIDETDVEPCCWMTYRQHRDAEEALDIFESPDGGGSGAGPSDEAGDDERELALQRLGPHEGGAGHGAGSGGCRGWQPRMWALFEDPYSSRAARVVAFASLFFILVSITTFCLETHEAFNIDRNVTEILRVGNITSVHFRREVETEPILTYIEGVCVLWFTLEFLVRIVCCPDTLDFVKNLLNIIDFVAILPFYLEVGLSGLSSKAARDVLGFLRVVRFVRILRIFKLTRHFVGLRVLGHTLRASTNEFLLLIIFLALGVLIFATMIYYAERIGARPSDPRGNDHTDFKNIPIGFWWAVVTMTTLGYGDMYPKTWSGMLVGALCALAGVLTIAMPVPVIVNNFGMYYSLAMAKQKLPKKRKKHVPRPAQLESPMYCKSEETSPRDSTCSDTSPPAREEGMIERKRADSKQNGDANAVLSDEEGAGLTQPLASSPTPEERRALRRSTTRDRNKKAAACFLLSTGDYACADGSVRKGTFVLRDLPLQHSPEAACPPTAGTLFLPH
T1 sequence (Q9Y6H6 1-103 partner): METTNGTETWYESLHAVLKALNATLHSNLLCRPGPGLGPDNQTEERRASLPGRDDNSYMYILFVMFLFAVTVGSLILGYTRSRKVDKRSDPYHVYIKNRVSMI
Test: Whole-cell patch clamp of Kv3.4 currents in CHO cells transiently transfected with Kv3.4/MiRP2
Format: cell-based
Conditions: for percentage of inhibition of Kv3.4 currents: acute application in extracellular solution, peak of depolarizing pulse +60 mV, [(C0-C1)/C0] x 100, mean of 6 to 10 cells, three sessions
Protocol: KV3.4 and MiRP2 channel subunits were expressed in Chinese hamster ovary (CHO) cells by transient transfection. CHO cells were grown in 100 mm plastic Petri dishes in Dulbecco's Modified Eagle Medium containing 10% fetal bovine serum (FBS), non-essential amino acids (0.1 mm), penicillin (50 U/ml), and streptomycin (50 μg/ml) in a humidified atmosphere at 37°C with 5% CO2 (Miceli et al., [2015]). KV3.4 and MiRP2 cDNAs were kindly provided by the Professor Goldstein of the Department of Pediatrics and Institute for Molecular Pediatric Sciences, University of Chicago, USA. For electrophysiological experiments, cells were seeded on glass cover-slips (Glaswarenfabrik Karl Hecht KG, Sondheim, Germany) coated with poly-L-lysine (50 μg/mL) and transfected the next day with the appropriate cDNAs using Lipofectamine 2000 according to guidelines for transfection. We performed electrophysiological experiments 48 h after transfection.
Currents from CHO cells were recorded at room temperature 1-2 days after transfection. The extracellular solution contained the following (in mM): 138 NaCl, 5.4 KCl, 2 CaCl2, 1 MgCl2, 10 glucose and 10 HEPES, adjusted pH 7.4 with NaOH. The pipette solution contained (in mM) the following: 140 KCl, 2 MgCl2, 10 EGTA, 10 HEPES, 5 Mg-ATP, adjusted pH 7.4 with KOH (Miceli et al., [2015]). KV3.4 currents were measured by applying voltage steps from −100 mV to +60 mV from a holding potential of −80 mV (Abbott et al., [2001]). Moreover, the total outward K^+ currents were recorded in NGF-differentiated PC-12 cells using the extracellular solution contained the following (in mM): 150 NaCl, 5.4 KCl, 3 CaCl2, 1 MgCl2, 10 HEPES, adjusted pH 7.4 with NaOH. The pipette solution contained the following (in mM): 140 KCl, 2 MgCl2, 10 HEPES, 10 glucose, 10 EGTA, and 1 Mg-ATP adjusted at pH 7.4 with KOH (Diochot et al., [1998]). All experiments were performed in the presence of 50 nM tetrodotoxin (TTX) and 10 μ M nimodipine in the extracellular solution. To discriminate K^+ current components appropriate electrophysiological protocols were used (Pannaccione et al., [2007]). Steady-state activation and inactivation properties were measured by using appropriate protocols (Pannaccione et al., [2005]). Capacitive currents were elicited by 5-mV depolarizing pulses from −80 mV and acquired at a sampling rate of 50 kHz. The capacitance of the membrane was calculated according to the following equation: Cm = τc·Io/ΔEm (1-I∞/Io), where Cm is membrane capacitance, τc is the time constant of the membrane capacitance, Io is the maximum capacitance current value, ΔEm is the amplitude of the voltage step, and I∞ is the amplitude of the steady-state current. K^+ currents were recorded by patch-clamp technique in CHO and NGF-differentiated PC-12 cells using a commercially available amplifier (Axopatch 200B, Molecular Devices) and Digidata 1322A interface (Molecular Devices, USA). The whole-cell configuration of the patch-clamp technique was adopted using glass micropipettes with a resistance of 2.5-5.0 MΩ. Data were acquired and analyzed using the pClamp software (version 9, Molecular Devices).
For the acute treatment, each peptide has been added in the extracellular solution. For each cell, we first recorded K^+ currents as previously described, in the absence of peptides. After that, we switched from the extracellular solution without BDS-I peptides to the extracellular solution containing the BDS-I peptide. In these conditions, we recorded K^+ currents until the steady-state was reached. This protocol has been performed to test the effect on KV3.4 currents of each BDS-I fragment as well as of BDS-I[1-8scr].
To identify the smallest BDS-I amino acid sequence able to block Kv3.4 activity, we evaluated the effect of the newly synthesized BDS-I fragments in CHO cells transiently transfected with Kv3.4/MiRP2, by patch clamp technique in whole cell configuration. […]

[1] = peptide 100 nM, CHO cells transfected with Kv3.4/MiRP2

Substance | ability to inhibit Kv3.4 currents (in words) (peptide 100 nM, acute application, CHO cells transfected with Kv3.4/MiRP2, whole-cell patch clamp) | percentage of inhibition of Kv3.4 currents [1] | effect on steady-state parameters for activation and inactivation of Kv3.4 currents (100 nM, Boltzmann fit) | time of peptide exposure at which steady-state of inhibition was reached (100 nM, currents at peak of repetitive (20 sec) depolarizing pulses (+60 mV)) [s] | voltage dependence of Kv3.4 current inhibition (I-V relationship) (100 nM, peak current before and during application, pulses from +60 to −100 mV) | IC50 (CHO cells transiently transfected with KV3.4/MiRP2, inhibitory dose-response curve, % of inhibition normalized to controls) [µM]
H-GSAFAPAA-OH [BDS-I[1-8scr]] | not able to modify KV3.4 activity | – | – | – | – | –
blood depressing substance-I [BDS-I] | – | ~ 60% | – | – | – | –
AAPAFASG [BDS-I[1-8]] | – | more than 80% | did not modify | 150 | not voltage-dependent | 0.075
